Assay results reported in patent US20230181535A1, “UBIQUITIN-LIGASE INHIBITORS FOR THE TREATMENT OF CANCER” (FUNDACIÓN PROFESOR NOVOA SANTOS, priority 2020, published 2023).

Assays:
[1] = system: non-transformed epithelial MDCK cells; assay: BrdU proliferation assay, MDCK; assay type: cell-based; conditions: 48 h
Protocol: (§1) For BrdU assays, 1×10^4 of indicated cells were plated per well into a 96-well plate. After 24 h, cells were treated with the indicated inhibitors for 48 h. Three independent experiments were plated with six replicates per each condition. Cells were treated with […] BrdU for 2 h. BrdU incorporation into newly synthesized DNA was measured using a cell proliferation colorimetric immunoassay kit according to the manufacturer's instructions (Roche, Switzerland). Results are expressed as mean±S.D. Results are represented as percentage of positive cells (mean±S.D) of three independent experiments.

[2] = Hepatocyte stability, mouse; assay type: in vitro ADME; conditions: cryopreserved mouse hepatocytes in suspension, read-out: half-life (T½)
Protocol: (§2) Test compound (final substrate concentration 3 μM; final DMSO concentration 0.25%) were pre-incubated at 37° C., prior to the addition of a suspension of cryopreserved hepatocytes (final cell density 0.5×10^6 viable cells/mL in Williams E media supplemented with 2 mM L glutamine and 25 mM HEPES) to initiate the reaction. The reactions were stopped with acetonitrile containing internal standard at the appropriate time points ([…]). The termination plates were centrifuged at 2500 rpm at 4° C. for 30 minute to precipitate the protein. Following the hepatocyte stability assays, the samples were utilized for metabolite profiling. Hepatocyte stability in mouse and human was performed by using the incubation of tested compound (3 μM) with cryopreserved hepatocytes in suspension. Samples were removed at 6 time points over the course of a 60 min experiment and remaining test compound at each time point was analysed by using LC-MS/MS. Then, data was analysed and an intrinsic clearance (CLint) with standard error and half-life (t½) reported.

[3] = Hepatocyte stability, human; assay type: in vitro ADME; conditions: cryopreserved human hepatocytes in suspension, read-out: estimated half-life
Protocol: as §2

[4] = system: Hakai-MDCK cell lines (clone 4 and clone 11); assay: MTT cell viability assay, Hakai-MDCK; assay type: cell-based; conditions: Hakai-MDCK clone 4 and clone 11, compared with MDCK
Protocol: (§3) For cytotoxicity assays, 1×10^4 cells were seeded per well into a 96-well plate. After 24 h cells were treated with the indicated inhibitors for 72 h and a MTT colorimetric cell viability assay was performed following manufacturer's instructions (Sigma Aldrich, St Louis, Mo.). Absorbance was measured at 570 and 630 nm using a Multiskan Plus Reader (Nanoquant Infinite M200 Tecan Trading AG, Switzerland). Dose-response curves were designed with Graph Pad Prism Software and the half-maximal inhibitory concentration (IC50) values were calculated. Represented data are the mean±SEM of at least three independent experiments with six replicates per condition.

Hakai-MDCK cells = assay: Soft agar-colony formation assay, Hakai-MDCK; assay type: cell-based; conditions: 21 days
Protocol: Soft agar-colony formation assay was performed on 12-well plates in triplicates at a density of 5×10^3 MDCK and MDCK-Hakai cells/well, or 12×10^3 HT29 cells/well. Cells were seeded in medium with 0.5% low-melting agarose over a layer with 0.75% low-melting agarose (Lonza Rockland, Me., USA). Cells were treated with the indicated inhibitors and DMSO was used as vehicle. Treatment was refreshed every 3 days and, after 21 days for MDCK and MDCK-Hakai cells or 28 days for HT29 cells, number of colonies were quantified. Quantification of five randomly-selected fields of each condition was photographed with a Nikon Eclipse-TI microscope (objective 4×). Experiments were conducted with three triplicates and were repeated three times. Data are represented as mean±SD.

epithelial MDCK cells = assay: Phase-contrast cell phenotype, MDCK; assay type: cell-based
Protocol: (§4) MDCK, HEK293T, HepG2, MCF7 and ACHN cells were cultured in Dulbecco's Modified Eagles Medium (DMEM). MDCK stably expressing Hakai cells (Hakai-MDCK) were previously reported and were growth in DMEM with G418 (800 μg/ml). […] LoVo and PC-3 cells were cultured in F-12K Medium (Kaighn's Modification of Ham's F-12 Medium) and HT-29 and HCT116 cells in McCoy's 5a Medium Modified. 5637 cells were cultured in RPMI medium. All culture media were supplemented with 1% penicillin/streptomycin and 10% of heat-inactivated fetal bovine serum (FBS) at 37° C. in a humidified incubator with 5% CO2. Cells were monthly tested for mycoplasma contamination and used only for 1-3 months after defrosted. LoVo and HT29 cells were authenticated with the StemElite ID system (Promega). For phase-contrast images, culture cells were photographed with a Nikon Eclipse-TI microscope.

HT-29 cells = assay: Phase-contrast cell phenotype, HT-29; assay type: cell-based, human
Protocol: as §4

[5] = system: HT-29 colon tumour cell line; assay: MTT cell viability assay, HT-29; assay type: cell-based, human; conditions: increasing range of concentrations
Protocol: as §3

[6] = system: ubiquitination in 293T cells; assay: Ubiquitination assay in 293T cells transfected with v-Src and HA-ubiquitin (Hakai not overexpressed); assay type: cell-based; conditions: vs DMSO
Protocol: Six hours after transfection cells were treated with indicated concentrations of Hakin-1, Hakin-5 or the rest of the compounds tested for 36 h. Whole cell extracts were obtained in lysis buffer (20 mM Tris-HCl pH 7.5, 150 mM NaCl and 1% Triton X-100) containing 10 μg/ml leupeptin, 10 μg/ml aprotinin and 1 mM phenylmethanesulphonyl fluoride (PMSF), supplemented with 10 mM N-ethylmaleimide. Cells were harvested and subjected to western blotting using anti-HA antibody to detect ubiquitination.

LoVo cells = assay: Invasion assay, LoVo; assay type: cell-based; conditions: treated 48 h
Protocol: For invasion assays, cells were treated with Hakin-1 or DMSO as vehicle for 48 h using 1% FBS during the last 24 hours. 3×10^5 MDCK, MDCK-Hakai or LoVo cells were seeded in a cell invasion chamber (Cell invasion assay kit, Chemicon International) containing medium with 2% FBS. After 72 hours for MDCK and MDCK-Hakai Invasive and 16 h for LoVo cells, invasive cells invaded that reach the lower chamber containing 30% FBS were fixed and stained with crystal violet (Sigma Aldrich, St Louis, Mo.) following the manufacturer's specifications. For migration assays, HT29 cells were cultured with Hakin-1 or DMSO as vehicle for 48 h, using medium without serum the last 24 h. In the cell migration chamber were seeded 3×10^5 HT29 cells (Cell migration kit, Millipore, Bedford, Mass.) containing medium without serum. After 16 h, migrated cells in the lower chamber containing serum with 30% FBS were stained with crystal violet and counted following the manufacturer's specifications. For both invasion and migration assays cells were counted in five fields photographed with an Olympus microscope using a 20× objective, experiments were performed in triplicates for each condition and the assays were repeated at least three times. Results are expressed as mean±SD.

renal cancer ACHN cells = assay: BrdU proliferation assay, ACHN; assay type: cell-based, human; conditions: 48 h
Protocol: as §1

[7] = system: Hakai-transformed MDCK cells; assay: Phase-contrast cell phenotype, Hakai-MDCK; assay type: cell-based; conditions: Hakai-transformed MDCK cells (mesenchymal phenotype)
Protocol: as §4

[8] = system: mouse-cryopreserved hepatocytes; assay: Hepatocyte stability, mouse; assay type: in vitro ADME; conditions: 3 μM
Protocol: as §2

compound remaining after 60 min [8] | Compound | cell proliferation (BrdU) [1] | half-life at 3 μM [2] [min] | half-life at 3 μM [3] [h] | sensitivity to treatment (cell viability, MTT) [4] | colony formation in soft agar (Hakai-MDCK cells) | cell phenotype by phase contrast (epithelial MDCK cells) | cell phenotype by phase contrast (HT-29 cells) | cytotoxicity (cell viability, MTT) [5] | ubiquitination when Hakai was not overexpressed [6] | cell invasion (LoVo cells) | cell proliferation (BrdU) (renal cancer ACHN cells) | cell phenotype by phase contrast [7]
 | O=C(O)c1ccc(-n2nnnc2SCC(=O)c2ccc([N+](=O)[O-])cc2)cc1 [Hakin-1, 4-(5-[2-(4-nitrophenyl)-2-oxoethyl]thiol-1H-tetrazol-1-yl)benzoic acid] | no effect was detected | 5.92 | 2.33 | more sensitive | robust inhibition of colony formation | no effect was observed | modestly induce an epithelial phenotype | important inhibitory response | did not affect ubiquitination | strongly reduced cell invasion | inhibited cell proliferation | induction of an epithelial phenotype
95%-100% | O=C(O)c1ccc(-n2nnnc2SCC(O)c2ccc([N+](=O)[O-])cc2)cc1 (stereo not shown) [MKH1] |  |  |  |  |  |  |  |  |  |  |  | 
